Experimental data as given in publication PMC3709818, “A Novel Perspective and Approach to Intestinal Octreotide Absorption: Sinomenine-Mediated Reversible Tight Junction Opening and Its Molecular Mechanism” (International Journal of Molecular Sciences, 2013).
Where a name gives a salt, the structure may show the parent alone.

What was measured:
[1] = everted rat gut sac model; cited from earlier work
[2] = OCT transport across Caco-2 cell monolayers; type: in vitro ADME, human; settings: Caco-2, 21 days, Transwell, 10 μM OCT with or without 0.5% SN, PBS pH 7.4, 120 min, 37 °C, LC-MS/MS, triplicate, mean ± s.d.
Procedure: Caco-2 cells were seeded onto polycarbonate 12-well Transwell® filter inserts as described above. The OCT transport experiment was performed in the apical-to-basolateral directions in PBS adjusted to pH 7.4 [7]. A volume of 0.5 mL of 0.5% SN containing 10 μM OCT was added to the apical side of Caco-2 cell monolayers. The medium in the basolateral side was buffered by the addition of 1.5 mL PBS of each well. Samples of 0.1 mL were withdrawn at time intervals of 30, 60, 90 and 120 min from the basolateral side after the incubation of the solutions on the apical side of cell monolayers. The samples withdrawn were replaced with an equal volume of buffered PBS. Control experiments were performed using a solution of OCT alone. […]
The results were corrected for dilution and plotted as the percentage cumulative OCT transported as a function of time. The apparent permeability coefficients (Papp) were calculated according to the following equation [33]: Papp = ΔQ/(Δt × A × C0) (cm/s), where ΔQ/Δt is the amount of OCT transported within a given time period or permeability rate (ng/min), A is the surface area of the cell monolayer on the insert (cm^2) and C0 is the initial drug concentration (ng/mL). Permeation enhancement ratios (R) were calculated from the Papp values using the following equation R = Papptest/Pappcontrol.

[3] = tested on: claudin-1; experiment: Claudin-1 gene and protein expression (real-time PCR, western blot, immunofluorescence); type: cell-based, human; settings: Caco-2 monolayers
Procedure: Caco-2 cells were grown on 6-well plates for 21 days and were then treated with SN for 2 h. Then, SN was removed by washing the cells with PBS twice. The cells were grown with new culture medium for another 2 h. To observe the effect of PKC on SN, cells in another group were treated with 0.5% SN and 10 μM Ro318220 together for 2 h. Control experiments were performed under the same conditions but without SN. The gene level expressions induced by SN treatment and after its removal were investigated. Total RNA was extracted following a standard guanidinium phenol-chloroform extraction protocol. The quantity of mRNA was determined by measuring the optical density at 260 nm (A260 nm = 1 for 40 μg/mL RNA), and the purity of mRNA was assessed by determining the ratio of the optical density obtained at 260 and 280 nm (pure RNA: A260 nm/A280 nm = 2.0) using a UV-1206 spectrophotometer (Shimadzu, Tokyo, Japan). […] Quantitative real-time PCR was performed using the Applied Biosystems 7500 faster Real-Time PCR System with the SYBR® Premix Ex Taq™ (Tli RNaseH Plus) Master Mix purchased from Takara Bio Inc. (Dalian, China) in triplicate for each sample and each gene. […] The results were expressed as the folds of the CT value for the target mRNA to that of the β-actin mRNA. […]

[4] = tested on: PKC-α; experiment: PKC-α translocation cytosol to membrane (western blot); type: cell-based, human; settings: Caco-2 cells, 0.5% SN, 2 h
Procedure: Caco-2 cells were grown on 6-well plates and were treated with SN as described above. After treatment, cytosolic, membrane and total protein were extracted following the manufacturer’s instructions of the test kit from Nanjing KeyGEN Biotech. CO., LTD (China). The protocols for western blot analyses have been described previously. The protein concentration was calculated using the BCA Protein Assay Kit from Nanjing KeyGEN Biotech. CO., LTD (China). Equal amounts of protein samples (30 μg protein) were separated onto SDS-polyacrylamide gels (PKC and β-actin were 12% gels, claudin-1 was 15% gels), and the separated proteins were transferred to a PVDF membrane. After blocking in 5% skim milk in Tris-buffered saline containing 0.05% Tween-20 (TTBS), the PVDF membrane was incubated overnight in blocking buffer with diluted primary antibodies: anti-claudin-1 (Abcam, Cambridge, MA, USA, 1:1000 dilution), anti-PKC-α (Beyotime Institute of Biotechnology, China, 1:500 dilution), and anti-β-actin (Zhongshan Goldenbridge Biological Technology, Beijing, China, 1:500 dilution), at 4 °C. […] The product bands were photographed, and the density of each product band was quantified. The intensity of each signal was corrected using the values obtained from the immunodetection of β-actin, and the relative protein intensity was expressed as folds of the content in the normal group.

[5] = tested on: Caco-2 cell monolayers; experiment: FD-4 permeability (paracellular flux); type: cell-based, human; settings: 0.1% FD-4 apical, 0.5% SN with or without 10 μM Ro318220, up to 120 min, PBS pH 7.4, fluorescence
Procedure: The integrity of the cell monolayer TJs was also examined by evaluating the FD-4 permeability in PBS adjusted to pH 7.4. A volume of 0.5 mL of 0.1% FD-4 containing 0.5% SN or 0.5% SN + 10 μM Ro318220 was added to the apical side of Caco-2 cell monolayers. The medium in basolateral side was buffered by the addition of 1.5 mL PBS to each well. Samples of 0.1 mL were withdrawn at time intervals of 30, 60, 90 and 120 min from the basolateral side after the incubation of the solutions on the apical side of cell monolayers. The samples withdrawn were replaced with an equal volume of buffered PBS. Control experiments were performed using a solution of 0.1% FD-4 alone. All of the experiments were performed in triplicate at 37 °C in an atmosphere of 90% relative humidity and 5% CO2. Basolateral solutions were then sampled and analyzed.
Quantitative analysis of FD-4: Samples were centrifuged at 10,000 rpm for 10 min, and the supernatant was analyzed using a fluorescence spectrophotometer at an excitation wavelength of 495 nm and an emission wavelength of 520 nm (Hitachi, FP6500, Tokyo, Japan).
Permeation clearance: ΔQ/(Δt × C0), where ΔQ/Δt is the permeation flux, i.e., the transport rate (μg/min), and C0 is the initial concentration on the donor side (μg/mL). Clearance was obtained per unit surface area and expressed as nL/min/cm2.

[6] = tested on: Caco-2 cell monolayers; experiment: LDH release cytotoxicity assay; type: cell-based, human
Procedure: To examine the toxic effects of SN to the Caco-2 cells, a lactate dehydrogenase (LDH) release assay was performed according to Madara and Stafford. The Caco-2 monolayer, which had been cultured in 24-well plates for 21 days, was washed with 500 μL of the PBS and was then incubated with 500 μL of the PBS containing the samples (0.5%, 1%, 2% w/v SN) to be tested at 37 °C for 120 min. Control experiments were performed under the same conditions but without SN. The amounts of LDH in the supernatant were determined using the enzymatic method and following the manufacturer’s instructions of LDH-Cytotoxic test kit from Nanjing KeyGEN Biotech. CO., Ltd. (Nanjing, China). Cytotoxicity was determined after 120 min of SN treatment, and the absorbance at 440 nm (reference wavelength was 650 nm) was measured to determine LDH activity. The cytotoxicity to the Caco-2 cell monolayers was expressed by the ratio of LDH released into the supernatant compared with the control group.
The LDH activity was calculated thus: (U/L) = (ODu − ODc)/(ODs − ODb) × Cs × N × 1000, where ODu, ODc, ODs, ODb represent the absorbance of the test tube, control tube, standard tube, and background tube, respectively, C represents the standard concentration (2 mmol/L) and N represents the dilution ratio of the sample.

[7] = tested on: Caco-2 cell monolayers; experiment: Transepithelial electrical resistance (TEER) measurement; type: cell-based, human
Procedure: The cell monolayer integrity was examined by measuring the TEER and evaluating the cell permeability to FD-4 in Caco-2 cell monolayers. The experiments were performed after Caco-2 cells formed polarized monolayers. Cells were seeded onto polycarbonate 12-well Transwell® filter inserts (Corning Costar Corp., Cambridge, MA, USA; pore size 0.4 μm, growth area 1.12 cm^2) at a density of 1 × 10^6 cells/mL, and the cells were grown for 21 days before the TEER study was conducted. After the application of 0.5% SN, TEER was measured at time intervals of 20 min for a period of 120 min. Then, the reversibility of SN on TEER was measured by removing SN from the apical compartment and replacing it with serum-free DMEM for a further 120 min at 20-min intervals. To observe the effect of PKC to SN, cells in another group were treated with 0.5% SN and 10 μM Ro318220 (PKC inhibitor) together for 120 min at 20-min intervals. Control experiments were performed under the same conditions but without SN. All of the experiments were performed in triplicate at 37 °C in an atmosphere of 90% relative humidity and 5% CO2. The TEER measurements across Caco-2 cell monolayers were performed using a Millicell ERS instrument (Millipore, Bedford, MA, USA). The TEER values of these cells after treatment were recorded. Resistance due to the cell monolayers was determined in the presence and the absence of SN after subtracting the contribution of the blank filter. The percent change in TEER was calculated as follows:
(1) TEER=(R1-R0)×A (Ω·cm^2)
where R1 and R0 represent the TEER readings from the wells with cells and the no-cell background wells, respectively, and A (cm^2) represents the surface area of the cell monolayer on the insert.
(2) TEER%=TEERtest/EERinitial×100

Structure (SMILES): C[C@@]12C[C@@]3(O)O[C@@H](O1)[C@]1(COC(=O)c4ccccc4)[C@H]3C[C@@]12O[C@@H]1O[C@H](CO)[C@@H](O)[C@H](O)[C@H]1O [paeoniflorin]
- increase of paeoniflorin absorption when co-incubated with SN [1]: approximately 2.5 fold

Structure (SMILES): C[C@@H](O)[C@@H]1NC(=O)[C@H](CCCCN)NC(=O)[C@@H](Cc2c[nH]c3ccccc23)NC(=O)[C@H](Cc2ccccc2)NC(=O)[C@@H](NC(=O)[C@H](N)Cc2ccccc2)CSSC[C@@H](C(=O)N[C@H](CO)[C@@H](C)O)NC1=O [OCT, Octreotide]
- Papp A→B [2]: 2.67 ± 0.015 ×10⁻⁶ cm/s

Structure (SMILES): COC1=C[C@@H]2[C@@H]3Cc4ccc(OC)c(O)c4[C@]2(CCN3C)CC1=O [SN, Sinomenine hydrochloride]
- claudin-1 expression after SN removal ([3]; 0.5% SN 2 h, then 2 h after removal): returned to its normal level
- claudin-1 gene and protein expression vs control ([3]; 0.5% SN with or without 10 μM Ro318220, 2 h): distinct loss of claudin-1 gene
- PKC-α distribution between cytosolic and membrane fraction [4]: most PKC-α was present in the membrane fraction
- FD-4 flux (A-B) [5]: time-dependent increase in FD-4 flux
- LDH release vs control ([6]; 0.5% w/v SN, 120 min, PBS 37 °C, Caco-2 monolayers cultured 21 days): did not differ from the control
- cytotoxicity by LDH test ([6]; 1% w/v SN, 120 min, Caco-2 monolayers): cytotoxic effects
- LDH release vs control ([6]; 2% w/v SN, 60 min, Caco-2 monolayers): markedly increased LDH activity
- cytotoxicity by LDH test ([6]; 2% w/v SN, 120 min, Caco-2 monolayers): cytotoxic effects
- TEER recovery after SN removal vs control ([7]; 0.5% SN 120 min, then removal, at 240 min): no difference compared with the control
- effect on TEER at 120 min vs control ([7]; 0.5% SN with or without 10 μM Ro318220, 120 min, Caco-2 monolayers, triplicate): strong reduction of TEER
- TEER relative to the initial value ([7]; 0.5% SN, 120 min incubation, pH 7.4, Caco-2 monolayers): 43%
- time for transient and reversible opening of TJ ([7]; 0.5% SN, Caco-2 monolayers, recovery after removal): 2 h
